Experimental data taken from patent US10300155B2, “Alpha-synuclein ligands” (Washington University, priority 2015, dated 2019).
pEC50, pKd, pKi: −log10 of the molar value. Several values for one entry are separate records, joined by “and”; a condition that tells them apart may be missing. Equal values may be shown once. Read-outs that look alike come from different tables or passages of the source.

What was measured:
α-synuclein fibrils [1] = target: T1, α-synuclein fibrils (Homo sapiens, UniProt P37840); test: ThT saturation binding to α-synuclein fibrils (Example 116); details: saturation curve
T1 construct: made in house; host or cells: E. coli BL21(DE3)RIL
Procedure: The mixture was incubated at room temperature for 1 hour on the shaking plate. The reaction plate was scanned by the excitation wavelength range from 430 to 465 nm. The maximum excitation wavelength (λex) was determined according to the fluorescent intensity-excitation wavelength curve. At (λex), the emission wavelength was scanned to get maximum emission wavelength (λem).
The mixture was incubated at room temperature for 1 hour on the shaking plate. The fluorescent intensity for each cell was measured by the fluorescence reader at λex and λem.

Control Tissue = test: Radioligand saturation binding, control postmortem brain tissue; design: species or system human; details: brain tissue homogenate
Source text: (§1) Brain tissue samples were selected from an autopsy case series of patients evaluated for parkinsonism by movement disorders specialists at the Movement Disorders Center of Washington University School of Medicine in St. Louis. The clinical diagnosis of idiopathic PD was based on modified United Kingdom Parkinson's Disease Society Brain Bank clinical diagnostic criteria with clear clinical response to levodopa [Hughes, A. J., et al, “Accuracy of clinical diagnosis of idiopathic Parkinson's disease: a clinico-pathological study of 100 cases,” 1992, J. Neurol. Neurosurg. Psychiatry, 55:181-184]. Dementia was determined by a movement disorders specialist based on clinical assessment of cognitive dysfunction sufficiently severe to impair activities of daily living, with further evaluation of cognitive impairment using the AD8 and Mini-Mental Status Exam (MMSE) [Galvin, J. E., et al., “The AD8: a brief informant interview to detect dementia,” 2005, Neurology 65:559-564; Folstein, M. F., et al., ““Mini-mental state”. A practical method for grading the cognitive state of patients for the clinician,” 1975, J. Psychiatr Res, 12:189-198]. LB stage was assessed at autopsy using a PD staging scale (range: 0, 1-6) [Braak, H., et al., “Stages in the development of Parkinson's disease-related pathology,” 2004, Cell Tissue Res., 318:121-134]. PD cases were selected based on a clinical diagnosis of PD plus dementia, Braak LB stage 5-6 pathology, and the absence of significant Aβ or tau pathology determined by immunohistochemistry. Control cases were selected based on the absence of α-synuclein, Aβ and tau pathology. Samples were used from both male and female subjects.
(§2) Grey matter was isolated from frozen postmortem frontal cortex tissue by dissection with a scalpel. To prepare insoluble fractions, dissected tissue was sequentially homogenized in four buffers (3 ml/g wet weight of tissue) with glass Dounce tissue grinders (Kimble): 1) High salt (HS) buffer: 50 mM Tris-HCl pH 7.5, 750 mM NaCl, 5 mM EDTA; 2) HS buffer with 1% Triton X-100; 3) HS buffer with 1% Triton X-100 and 1 M sucrose; and 4) phosphate buffered saline (PBS). Homogenates were centrifuged at 100,000×g after each homogenization step and the pellet was resuspended and homogenized in the next buffer in the sequence. For comparison in initial binding studies, crude tissue homogenates were also prepared by homogenization of tissue in only PBS. […]
(§3) Saturation binding assays combine binding substrate and varying radioligand concentrations, with or without the addition of a high concentration (50-100 times the estimated Kd) of a competitor compound to determine nonspecific binding. […] Specific binding is determined by subtracting nonspecific binding from total binding. […]

PD Tissue = test: Radioligand saturation binding, PD postmortem brain tissue; design: species or system human; details: brain tissue homogenate
Source text: as §1, §2, §3

AD Tissue = test: Radioligand saturation binding, AD postmortem brain tissue; design: species or system human; details: brain tissue homogenate
α-synuclein fibrils [2] = target: T1, α-synuclein fibrils; test: Radioligand binding assay with α-synuclein fibrils (Table 8)
Aβ1-42 fibrils = target: T2, Aβ1-42 fibrils (Homo sapiens, UniProt P05067); test: Radioligand binding assay with Aβ1-42 fibrils (Table 8)
T2 construct: Synthetic Aβ42 peptide (1 mg) (Bachem, Torrance, Calif.); purchased Bachem, Torrance, Calif; host or cells: synthetic peptide
Procedure: Synthetic Aβ42 peptide (1 mg) (Bachem, Torrance, Calif.) was first dissolved in 50 μl DMSO. An additional 925 μl of mQ-H2O was added. Finally, 25 μl 1M Tris-HCl pH 7.6 was added to bring the final peptide concentration to 222 μM (1 mg/ml) [16]. The dissolved peptide was incubated for 30 h at 37° C. with shaking at 1000 rpm in an Eppendorf Thermomixer. Fibril formation was confirmed by ThioT fluorescence. To determine the concentration of fibrils, the fibril reaction mix was centrifuged at 15,000×g for 15 min to separate fibrils from monomer. The concentration of Aβ monomer in the supernatant was determined in a BCA protein assay using a BSA standard curve that contained DMSO at a percentage equivalent to the samples. […]
A fixed concentration (1 μM) of α-syn, Aβ, or tau fibrils were incubated for 2 h at 37° C. with increasing concentrations of ThioT in 30 mM Tris-HCl pH 7.4, 0.1% BSA in a reaction volume of 150 μl. Nonspecific binding was determined in a duplicate set of binding reactions containing the same concentration of ThioT with no fibrils. Fluorescence was determined in a Biotek plate reader using a 440/30 excitation filter and a 485/20 emission filter. […] The dissociation constant (Kd) and the maximal number of binding sites (Bmax) values were determined by fitting the data to the equation Y=Bmax*X/(X+Kd) by nonlinear regression using Graphpad Prism software (version 4.0).

Aβ fibrils = Aβ fibrils (Homo sapiens, UniProt P05067); test: Thioflavin T competition assay (Example 130, Table 9), Aβ fibrils; type: binding; design: Synthetic Aβ42 peptide (1 mg) (Bachem, Torrance, Calif.); purchased Bachem, Torrance, Calif; host or cells: synthetic peptide
Procedure: An additional 925 μl of mQ-H2O was added. […] Fibril formation was confirmed by ThioT fluorescence.
(§4) Competition assays used a fixed concentration of α-syn, Aβ, or tau fibrils (1 μM), consisting of 3 μM, 50 nM and 4 μM of ThioflavinT respectively. […] To optimize the determination of selectivity, assays for all three fibril species were set up in parallel using a common set of intermediate compound dilutions for each analog. Reactions were incubated at room temperature for 1.5 h before quantifying bound ligand as described above for the saturation binding assay. […] All data points were performed in triplicate. Nonspecific fluorescence was measured in parallel reactions containing ThioT plus each concentration of competitor but no fibrils, and these measurements were subtracted from the reactions with fibrils to yield fibril-specific fluorescence. Data were analyzed using Graphpad. Prism software (version 4.0) to obtain EC50 values by fitting the data to the equation Y=bottom+(top-bottom)/(1+10^(x−log EC50)).

tau fibrils [3] = target: T3, tau fibrils (Homo sapiens, UniProt P10636); test: Thioflavin T competition assay (Example 130, Table 9), tau fibrils; type: binding; design: made in house; host or cells: E. coli BL21(DE3)RIL
Procedure: Recombinant tau protein was produced in E. coli.
as §4

tau fibrils [4] = target: T3, tau fibrils; test: Radioligand binding assay with tau fibrils (Table 8); design: made in house; host or cells: E. coli BL21(DE3)RIL
α-synuclein fibrils [5] = target: T1, α-synuclein fibrils; test: Thioflavin T competition assay (Example 130, Table 9), α-synuclein fibrils; type: binding
Procedure: Freshly transformed BL21 colonies were inoculated into 2 L baffled flasks containing 250 ml sterilized TB (1.2% bactotryptone, 2.4% yeast extract, 0.4% glycerol, 0.17 M KH2PO4, 0.72 M K2HPO4) with 50 μg/ml ampicillin, and incubated overnight at 37° C. with shaking.
as §4

T3 sequence (P10636 560-692): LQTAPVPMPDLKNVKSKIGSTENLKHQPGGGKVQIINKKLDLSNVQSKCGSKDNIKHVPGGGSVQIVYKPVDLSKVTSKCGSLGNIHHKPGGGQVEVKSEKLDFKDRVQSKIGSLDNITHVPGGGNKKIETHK
Aβ fibrils, sequence (P05067 672-713 limits assumed): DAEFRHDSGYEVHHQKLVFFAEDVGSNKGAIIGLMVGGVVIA
T2 sequence (P05067 672-713 limits assumed): as above

`Cc1ccc2c(c1)sc(-c1ccc(N(C)C)cc1)[n+]2C` [ThT, Thioflavin T] was tested, and the “Bmax for ThioT binding to fibrils” value (α-synuclein fibrils [1]) was 5672 afu.
For `COc1ccc2nc(/C=C/c3ccnc(OC)c3)ccc2c1` [[^11C]TZ-36-28-2T], the “Control Tissue Bmax (pmol/nmol)” value (Control Tissue) was 1081 pmol/nmol, the pKd (Control Tissue) was 6.80 and the pKd (PD Tissue) was 7.26. The “PD Tissue Bmax (pmol/nmol)” value (PD Tissue) was 367 pmol/nmol, the “AD Tissue Bmax (pmol/nmol)” value (AD Tissue) was 4316 pmol/nmol and the “α-synuclein Bmax (pmol/nmol)” value (α-synuclein fibrils [2]) was 51 pmol/nmol.
Work on `COc1cc(/C=C/c2ccc3cc(OCCF)ccc3n2)ccn1` [[^18F]TZ-36-148] yielded a pKd (Aβ1-42 fibrils) of 7.01, a pEC50 (Aβ fibrils; average, read-out: Aβ-fibrils EC50 (avg)) of 6.35 and a pKi (Aβ fibrils; average, read-out: Aβ-fibrils Ki (avg)) of 6.77. The pEC50 (Aβ fibrils; individual determinations, read-out: Aβ-fibrils EC50) was 6.36 and 6.34, the pKi (Aβ fibrils; individual determinations, read-out: Aβ-fibrils Ki) was 6.79 and 6.76 and the pKd (Control Tissue) was 6.32. For the same compound, the pKd (PD Tissue) was 6.78, the pEC50 (tau fibrils [3]; average, read-out: Tau fibrils EC50 (avg)) was 6.56 and the pKi (tau fibrils [3]; individual determinations) was 6.91 and 6.99. The pEC50 (tau fibrils [3]; individual determinations, read-out: Tau fibrils EC50) was 6.52 and 6.60, the pKd (tau fibrils [4]) was 7.29 and the pKd (AD Tissue) was 7.08. The pEC50 (α-synuclein fibrils [5]; average, read-out: α-synuclein EC50 (avg)) was 7.33, the pKi (α-synuclein fibrils [5]; average, read-out: α-synuclein Ki (avg)) was 7.74 and the pEC50 (α-synuclein fibrils [5]; individual determinations, read-out: α-synuclein EC50) was 7.35 and 7.31. For the same compound, the pKi (α-synuclein fibrils [5]; individual determinations, read-out: α-synuclein Ki) was 7.77 and 7.72 and the pKd (α-synuclein fibrils [2]) was 7.05.
In the case of `COc1cc(/C=C/c2ccc3cc(OCC[18F])ccc3n2)ccn1` [[^18F]TZ-36-148], the “Aβ1-42 fibrils Bmax (pmol/nmol)” value (Aβ1-42 fibrils) was 28 pmol/nmol, the “Control Tissue Bmax (pmol/nmol)” value (Control Tissue) was 604 pmol/nmol and the “PD Tissue Bmax (pmol/nmol)” value (PD Tissue) was 1510 pmol/nmol. For the same compound, the “Tau fibrils Bmax (pmol/nmol)” value (tau fibrils [4]) was 58 pmol/nmol, the “AD Tissue Bmax (pmol/nmol)” value (AD Tissue) was 12945 pmol/nmol and the “α-synuclein Bmax (pmol/nmol)” value (α-synuclein fibrils [2]) was 29 pmol/nmol.
